What all share (type): functional
The subject of test [1] is Staphylococcus aureus. In words: Antibacterial activity against methicilin-resistant Staphylococcus aureus N315 assessed as inhibition of bacterial growth incubated for 18 hrs by two fold broth microdilution assay. A general note: Dilution methods test growth across graded concentrations, often in twofold steps.
For test [2], the system named is Enterococcus faecalis. In words: Antibacterial activity against Enterococcus faecalis assessed as inhibition of bacterial growth incubated for 18 hrs by two fold broth microdilution assay.
Test [3] relates to Staphylococcus aureus. In words: Antibacterial activity against Staphylococcus aureus assessed as inhibition of bacterial growth incubated for 18 hrs by two fold broth microdilution assay.
The subject of test [4] is Staphylococcus aureus. In words: Antibacterial activity against Staphylococcus aureus ATCC 25923 assessed as inhibition of bacterial growth incubated for 18 hrs by two fold broth microdilution assay.
The subject of test [5] is Staphylococcus aureus. In words: Antibacterial activity against Staphylococcus aureus ATCC 29213 assessed as inhibition of bacterial growth incubated for 18 hrs by two fold broth microdilution assay.
In test [6] the test system is Klebsiella pneumoniae. In words: Antibacterial activity against Klebsiella pneumoniae assessed as inhibition of bacterial growth incubated for 18 hrs by two fold broth microdilution assay.
In test [7] the test system is Escherichia coli. In words: Antibacterial activity against Escherichia coli assessed as inhibition of bacterial growth incubated for 18 hrs by two fold broth microdilution assay.
The test system of test [8] is Pseudomonas aeruginosa. In words: Antibacterial activity against Pseudomonas aeruginosa assessed as inhibition of bacterial growth incubated for 18 hrs by two fold broth microdilution assay.
Test [9] concerns Acinetobacter baumannii. In words: Antibacterial activity against Acinetobacter baumannii assessed as inhibition of bacterial growth incubated for 18 hrs by two fold broth microdilution assay.
Test [10] concerns Pseudomonas aeruginosa. In words: Antibacterial activity against Pseudomonas aeruginosa ATCC 27853 assessed as inhibition of bacterial growth incubated for 18 hrs by two fold broth microdilution assay.
Test [11] relates to Escherichia coli. In words: Antibacterial activity against Escherichia coli ATCC 25922 assessed as inhibition of bacterial growth incubated for 18 hrs by two fold broth microdilution assay.

Values after ≈ are worked out from the molar mass of the structure shown.

Consider `CC(=O)Nc1ccc(S(=O)(=O)/C(C#N)=C/c2cn(Cc3ccccc3Cl)c3ccccc23)cc1`, for which the minimal inhibitory concentration (MIC) (in general, the least concentration at which growth counts as inhibited) in [1] amounted to 16 µg/mL (≈ 32.7 µM); in test [2], 4 µg/mL (≈ 8.16 µM); in test [3] it was 2 µg/mL (≈ 4.08 µM); in test [4], 4 µg/mL (≈ 8.16 µM); in [5], 8 µg/mL (≈ 16.3 µM); in [6] it was 2 µg/mL (≈ 4.08 µM). For the same compound, the MIC is 2 µg/mL (≈ 4.08 µM) in test [7]; 2 µg/mL (≈ 4.08 µM) in [8]; 8 µg/mL (≈ 16.3 µM) in [9]; 4 µg/mL (≈ 8.16 µM) in test [10]; 1 µg/mL (≈ 2.04 µM) in [11].

For `CC(=O)Nc1ccc(S(=O)(=O)/C(C#N)=C/c2cn(C)c3ccccc23)cc1`, the MIC is 16 µg/mL (≈ 42.2 µM) in test [1]; 128 µg/mL (≈ 337 µM) in [2]; 128 µg/mL (≈ 337 µM) in test [3]; 8 µg/mL (≈ 21.1 µM) in test [4]; 128 µg/mL (≈ 337 µM) in test [5]; 128 µg/mL (≈ 337 µM) in test [6]. Besides, the minimal inhibitory concentration (MIC) in [7] came out at 16 µg/mL (≈ 42.2 µM); in test [8] it was 32 µg/mL (≈ 84.3 µM); in test [9], 0.5 µg/mL (≈ 1.32 µM); in [10] it was 64 µg/mL (≈ 169 µM); in [11], 0.5 µg/mL (≈ 1.32 µM).

For `CCCCCCCCn1cc(/C=C(\C#N)S(=O)(=O)c2ccc(N)cc2)c2ccccc21`, the MIC turned out to be 256 µg/mL (≈ 588 µM) in test [1]; 32 µg/mL (≈ 73.5 µM) in test [2]; 128 µg/mL (≈ 294 µM) in test [3]; 32 µg/mL (≈ 73.5 µM) in test [4]; 16 µg/mL (≈ 36.7 µM) in test [5]; 4 µg/mL (≈ 9.18 µM) in test [6]. The minimum inhibitory concentration (MIC) in [7] stood at 128 µg/mL (≈ 294 µM); in test [8], 64 µg/mL (≈ 147 µM); in test [9], 32 µg/mL (≈ 73.5 µM); in test [10], 32 µg/mL (≈ 73.5 µM); in [11], 64 µg/mL (≈ 147 µM).

For the compound `Cc1cccc2c(/C=C(\C#N)S(=O)(=O)c3ccc(N)cc3)c[nH]c12`, the MIC was 128 µg/mL (≈ 379 µM) in [1]; 256 µg/mL (≈ 759 µM) in test [2]; 256 µg/mL (≈ 759 µM) in test [3]; 128 µg/mL (≈ 379 µM) in test [4]; 32 µg/mL (≈ 94.8 µM) in test [5]; 4 µg/mL (≈ 11.9 µM) in test [6]. Moreover, the MIC in [7] turned out to be 64 µg/mL (≈ 190 µM); in [8], 64 µg/mL (≈ 190 µM); in test [9] it was 4 µg/mL (≈ 11.9 µM); in [10] it was 64 µg/mL (≈ 190 µM); in [11], 4 µg/mL (≈ 11.9 µM).

`CN(C)CCn1cc(/C=C(\C#N)S(=O)(=O)c2ccc(N)cc2)c2ccccc21`: the minimum inhibitory concentration (MIC) worked out at 128 µg/mL (≈ 324 µM) in test [1]; 64 µg/mL (≈ 162 µM) in test [2]; 2 µg/mL (≈ 5.07 µM) in [3]; 2 µg/mL (≈ 5.07 µM) in [4]; 8 µg/mL (≈ 20.3 µM) in test [5]; 128 µg/mL (≈ 324 µM) in test [6]. Besides, the MIC turned out to be 128 µg/mL (≈ 324 µM) in test [7]; 64 µg/mL (≈ 162 µM) in test [8]; 16 µg/mL (≈ 40.6 µM) in test [9]; 32 µg/mL (≈ 81.1 µM) in test [10]; 256 µg/mL (≈ 649 µM) in test [11].

Consider `CC(=O)Nc1ccc(S(=O)(=O)/C(C#N)=C/c2cn(CC3CCCCC3)c3ccccc23)cc1`, for which the MIC in test [1] turned out to be 64 µg/mL (≈ 139 µM); in test [2] it was 32 µg/mL (≈ 69.3 µM); in test [3], 32 µg/mL (≈ 69.3 µM); in [4], 64 µg/mL (≈ 139 µM); in test [5], 64 µg/mL (≈ 139 µM); in [6] it was 128 µg/mL (≈ 277 µM). In addition, the MIC in [7] is 256 µg/mL (≈ 555 µM); in test [8], 64 µg/mL (≈ 139 µM); in test [9], 32 µg/mL (≈ 69.3 µM); in test [10], 2 µg/mL (≈ 4.33 µM); in test [11], 32 µg/mL (≈ 69.3 µM).

Turning to `CC(=O)Nc1ccc(S(=O)(=O)/C(C#N)=C/c2cn(CC(=O)OC(C)(C)C)c3ccccc23)cc1`, the MIC in [1] came to 256 µg/mL (≈ 534 µM); in test [2] it was 128 µg/mL (≈ 267 µM); in test [3], 128 µg/mL (≈ 267 µM); in [4], 128 µg/mL (≈ 267 µM); in [5], 16 µg/mL (≈ 33.4 µM); in test [6], 128 µg/mL (≈ 267 µM). Besides, the MIC in [7] amounted to 256 µg/mL (≈ 534 µM); in test [8] it was 128 µg/mL (≈ 267 µM); in test [9], 128 µg/mL (≈ 267 µM); in [10], 128 µg/mL (≈ 267 µM); in test [11], 256 µg/mL (≈ 534 µM).

`CCCCn1cc(/C=C(\C#N)S(=O)(=O)c2ccc(N)cc2)c2ccccc21`: the MIC stood at 256 µg/mL (≈ 675 µM) in [1]; 4 µg/mL (≈ 10.5 µM) in test [2]; 2 µg/mL (≈ 5.27 µM) in [3]; 2 µg/mL (≈ 5.27 µM) in [4]; 1 µg/mL (≈ 2.64 µM) in test [5]; 1 µg/mL (≈ 2.64 µM) in test [6]. The MIC in test [7] came out at 4 µg/mL (≈ 10.5 µM); in test [8] it was 2 µg/mL (≈ 5.27 µM); in [9] it was 256 µg/mL (≈ 675 µM); in [10], 4 µg/mL (≈ 10.5 µM); in test [11] it was 4 µg/mL (≈ 10.5 µM).

Turning to `N#C/C(=C\c1cn(Cc2ccc([N+](=O)[O-])cc2)c2ccccc12)S(=O)(=O)c1ccc(N)cc1`, the minimum inhibitory concentration (MIC) in [1] was found to be 128 µg/mL (≈ 279 µM); in test [2] it was 128 µg/mL (≈ 279 µM); in test [3], 256 µg/mL (≈ 558 µM); in test [4], 256 µg/mL (≈ 558 µM); in test [5], 128 µg/mL (≈ 279 µM); in [6] it was 64 µg/mL (≈ 140 µM). The MIC in test [7] came to 128 µg/mL (≈ 279 µM); in test [8], 64 µg/mL (≈ 140 µM); in test [9], 64 µg/mL (≈ 140 µM); in [10] it was 128 µg/mL (≈ 279 µM); in test [11], 128 µg/mL (≈ 279 µM).

In the case of `CC(=O)Nc1ccc(S(=O)(=O)/C(C#N)=C/c2cn(CC=C(C)C)c3ccccc23)cc1`, the MIC in [1] amounted to 64 µg/mL (≈ 148 µM); in [2], 4 µg/mL (≈ 9.23 µM); in [3], 4 µg/mL (≈ 9.23 µM); in [4], 8 µg/mL (≈ 18.5 µM); in test [5] it was 8 µg/mL (≈ 18.5 µM); in test [6] it was 16 µg/mL (≈ 36.9 µM). Besides, the MIC worked out at 8 µg/mL (≈ 18.5 µM) in test [7]; 64 µg/mL (≈ 148 µM) in test [8]; 8 µg/mL (≈ 18.5 µM) in [9]; 8 µg/mL (≈ 18.5 µM) in test [10]; 8 µg/mL (≈ 18.5 µM) in test [11].

The values above are taken from ChEMBL document CHEMBL5625248, “Identification of unique indolylcyanoethylenyl sulfonylanilines as novel structural scaffolds of potential antibacterial agents” (Eur J Med Chem, 2023).
